Reference: US11472845B2, “Antitumor peptide and use thereof” (TOAGOSEI CO., LTD., priority 2019, dated 2022)
Read-outs that look alike come from different tables or passages of the source. Ends that are not written are not given here.

Tested on: human breast cancer cell lines (MDA-MB-231)
Type: cell-based
Details: for Cell viability (%) of test cells: human, 48 h
Protocol: The antitumor activity of Sample 1 synthesized in the above Test Example 1 with respect to human-derived cultured tumor cells was evaluated. Currently commercially available human gastric cancer cell lines (FU97), human alveolar basal epithelial adenocarcinoma cell lines (A549), human breast cancer cell lines (MDA-MB-231), and human melanoma cell lines (A375) were prepared as test tumor cells. In addition, normal human mammary epithelial cell culture lines (MCF-12F) were prepared for comparison. A DMEM culture medium including 0.1 mM of non-essential amino acids, 50 unit/mL of penicillin, 50 μg/mL of streptomycin, and 10% FBS. The above five types of cell lines were cultured in respective designated culture solutions. The cell lines were cultured so that the number of cells per well in a 96-hole (well) plate was about 5×10^3. Here, an amount of the culture solution per well was 100 μL. The 96-well plate was then placed in a CO2 incubator. Then, pre-incubation was performed under conditions of 37° C. and 5% CO2 for about 1 day (about 23 hours). Then, regarding the culture solution for the peptide addition area, culture solutions containing Sample 1 for each concentration were prepared so that the concentration of Sample 1 was 6.25 μM, 12.5 μM or 25 μM and supplied to wells (that is, wells after the pre-incubation) in which 90 μL of cells to be evaluated were cultured in each well. On the other hand, regarding the culture solution for the comparative test area, a culture solution to which no Sample 1 was added was prepared, and supplied to wells (that is, wells after the pre-incubation) in which 90 μL of cells to be evaluated were cultured in each well. The 96-well plate was then placed in a CO2 incubator, and incubated under conditions of 37° C. and 5% CO2 for 48 hours. […] Then, the absorbance at a wavelength of 450 nm (value corrected by the absorbance at a wavelength of 620 nm: A450-A620) was measured based on the reduction of the tetrazolium salt in the culture solution. Then, the cell viability was calculated according to a colorimetric method. In the test areas (test areas 1 to 3) in the peptide addition area, the cell viability of each of the above five types of cell lines was calculated as a relative value when a measured value (measurement absorbance) of the comparative test area in the same cell lines was set as 100%. That is, regarding each of the above five types of cell lines, the cell viability (%) was calculated by dividing the measurement absorbance of the test areas (test areas 1 to 3) in the peptide addition area by the measurement absorbance of the comparative test area in the same cell lines and multiplying by 100.

**Q.** How did the “Specific cell viability of test tumor cells” value (MDA-MB-231, 12.5 μM Sample 1, (cell viability of test tumor cells)/(cell viability of MCF-12F cells)×100) turn out when “MACLGFQRHKAQLNLATRTWPCTLLFFLLFIPVFCKKRTLRKTDRKKR-NH2 (cysteines drawn unpaired) [Sample 1]” was run?
**A.** 47.9

**Q.** What about the “Cell viability (%) of test cells” value (6.25 μM) of the same substance?
**A.** 67.8%

**Q.** And the “Cell viability (%) of test cells” value (12.5 μM)?
**A.** 54.7%

**Q.** What about the “Cell viability (%) of test cells” value (25 μM) of the same substance?
**A.** 41.6%
